The source of these data is patent US20020123037A1, “Selection Procedure Using Prodrug/Enzyme System” (Cobra Therapeutics Limited, priority 1999, published 2002).

Structures are written as SMILES. “And” between values parts separate entries of the source, which are not always exact repeats. Equal values may be shown once.

The target in one assay is wild type nitroreductase (Escherichia coli, UniProt P38489). As to conditions: CB1954 as substrate, reference 9, cited from earlier work.
Assay [1] has as its system E.coli C600Hfl lysogens of λJG3J1 and λJG16C1. The assay is described as follows: Induction of phage release from 5:1 mixture of lysogens JG3J1 (control) and JG16C1 (ntr) by CB1954. Type of assay: cell-based. As to conditions: for #### (Control phage in the section above) / No. cols / Phage particles / No. ntr phage (colonies containing λJG16C1 of colonies screened by PCR): 500 μM CB1954. The protocol: E.coli C600Hfl (obtained from Promega Cat No. D3131) were infected with λJG3J1 or λJG16C1 for 15min at 37 °C and spread onto kanamycin (30µg/ml) selective Lennox agar (LA) plates to select for lysogens. A single colony of each was picked, and the lysogenic bacteria were then grown aerobically at 37 °C to mid log phase in LB containing 0.1mM IPTG. Approximately 4.8 x 10^8 λJG3J1 lysogens and 9 x 10^7 λ JG16C1 lysogens (as estimated from the optical density; approximate 5:1 ratio without:with nitroreductase) were mixed in 5ml LB containing 0.1mM IPTG in the presence or absence of 500 µM CB1954 (provided by Cobra Therapeutics and diluted from a 50mM stock solution in 2:7 N-methyl pyrrolidinone:PEG300). The mixtures of bacterial lysogens were incubated at 37 °C with shaking and 50µl samples removed at intervals between 15 and 185 minutes after mixing.
Each sample was immediately mixed with 1ml LB and 100µl chloroform to kill any bacteria, briefly centrifuged to pellet debris, and the supernatant diluted 1 in 10 before using 10 µl to infect E. coli C600Hfl and plating onto LA containing kanamycin, to select for bacteria lysogenised by bacteriophage in the sample.
The number of colonies growing from the samples was counted the following day, and indicates the total number of bacteriophage present in the sample.
The polymerase chain reaction (PCR) was used to determine whether the bacteria in each colony contained λJG3J1 or λJG16C1. A number of individual colonies were picked at random from the most relevant plates and transferred to a 200µl PCR tube, lysed in a microwave for 2min and 35µl of PCR reaction mix [16mM (NH4)2SO4, 67mM Tris-Cl (pH 8.8 at 25 °C), 0.01% Tween-20 (Bioline), 0.2mM each dNTP, 1.5mM MgCl2, 1 U Biotaq (Bioline)] plus 0.25 µM primersJ
A tube containing reaction mix but no bacteria was used as a control to check for contamination of PCR reaction components. After 30 cycles (94 °C/5min; then 30x 94 °C/45s, 55 °C/45s, 72 °C/160s; then 72 °C/10min) the PCR products were analysed by gel electrophoresis to determine the product size. Lysogens containing λJG16C1 expressing ntr gave a 1.1kb product whereas λJG3J1 lysogens gave a 0.4kb product. All the colonies gave one or the other of these two bands but not both, and the negative control confirmed the absence of contamination in the PCR.

Assay [2] concerns nitroreductase-expressing tumours. As to conditions: mice harbouring nitroreductase-expressing tumours; McNeish et al., 1998; cited from earlier work.
Assay [3] deals with colorectal, pancreatic and ovarian tumour cell lines. As to conditions: retroviral transfer of nitroreductase expression cassette; McNeish et al., 1998; Green et al., 1996; cited from earlier work.
The next assay relates to mammalian DT diaphorases. As to conditions: cited from earlier work.
[4] abbreviates: 15 min after mixing & induction.
Setting [5] is: 30 min after mixing & induction.
The mark [6] stands for this setting: 45 min after mixing & induction.
Where [7] appears, read: 60 min after mixing & induction.
The mark [8] stands for this setting: 75 min after mixing & induction.
Where [9] appears, read: 90 min after mixing & induction.
Where [10] appears, read: 125 min after mixing & induction.
The mark [11] stands for this setting: 155 min after mixing & induction.
Setting [12] is: 185 min after mixing & induction.

Sequence of wild type nitroreductase (P38489 whole entry): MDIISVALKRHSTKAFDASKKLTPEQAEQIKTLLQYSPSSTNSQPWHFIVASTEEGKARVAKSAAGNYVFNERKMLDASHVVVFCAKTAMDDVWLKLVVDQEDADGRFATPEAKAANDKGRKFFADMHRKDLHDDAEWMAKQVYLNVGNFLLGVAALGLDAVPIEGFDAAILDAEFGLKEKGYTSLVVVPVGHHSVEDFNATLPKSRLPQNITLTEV

The term Km denotes the substrate concentration at which the rate is half of its maximum. For the molecule `NC(=O)c1cc(N2CC2)c([N+](=O)[O-])cc1[N+](=O)[O-]` [CB1954, 5-[aziridin-1-yl]-2,4-dinitrobenzamide], at wild type nitroreductase, the turnover rate kcat is 6 s⁻¹. Moreover, the Michaelis-Menten constant (Km) at wild type nitroreductase (read-out: Michaelis constant KM) was 860 µM. For the same molecule, the “#### (Control phage in the section above)” value in assay [1] (15 min, no PCR typing) turned out to be 0.6; in assay [1] (30 min, no PCR typing), 1; in assay [1] (45 min, no PCR typing) it was 2.2; in assay [1] (60 min), 3.82; in assay [1] (75 min), 4.79; in assay [1] (90 min), 9.6. The entries for the “#### (Control phage in the section above)” value in assay [1] (125 min), in assay [1] (155 min) and in assay [1] (185 min) were 33.4, 54.7 and 72, respectively. In addition, the No. cols is 3 in assay [1] (setting [4]); 5 in assay [1] (setting [5]); 11 in assay [1] (setting [6]); 21 in assay [1] (setting [7]); 35 in assay [1] (setting [8]); 120 in assay [1] (setting [9]). Besides, the No. cols turned out to be 320 in assay [1] (setting [10]), 360 in assay [1] (setting [11]) and 360 in assay [1] (setting [12]). Moreover, the Phage particles in assay [1] (setting [4]) is recorded as 0.6 10^−6 per ml; in assay [1] (setting [5]), 1 10^−6 per ml; in assay [1] (setting [6]), 2.2 10^−6 per ml; in assay [1] (setting [7]) it was 4.2 10^−6 per ml; in assay [1] (setting [8]), 7 10^−6 per ml; in assay [1] (setting [9]), 24 10^−6 per ml. Also, the results for the Phage particles in assay [1] (setting [10]), in assay [1] (setting [11]) and in assay [1] (setting [12]) were 64 10^−6 per ml, 72 10^−6 per ml and 72 10^−6 per ml, respectively. Further, the “No. ntr phage (colonies containing λJG16C1 of colonies screened by PCR)” value in assay [1] (60 min) is 1 of 11; in assay [1] (75 min), 6 of 19; in assay [1] (90 min), 18/30 and 18 of 30; in assay [1] (125 min) it was 11 of 23; in assay [1] (155 min), 6 of 25; in assay [1] (185 min) it was 0 of 10. The “enrichment of λJG16C1” value in assay [1] (90 minute time point, 60% versus 16% at mixing) was ~ 4 fold. Moreover, in assay [1] (culture exposed to CB1954, at 90 minutes, λJG16C1 16% of the mixture at mixing), the “proportion of λJG16C1 among recovered bacteriophage (peak)” value was 60%. Besides, the “peak concentration of the λJG16C1” value in assay [1] (culture exposed to CB1954, at 125 minutes) is listed as 3 x 10^7 per ml. For the same molecule, the “concentration of total bacteriophages released into the medium” value in assay [1] (culture exposed to CB1954, at 155 minutes) was 7.2 x 10^7 per ml; in assay [1] (culture exposed to CB1954, at early times), 6 x 10^5 per ml. Further, the colony number is listed as ~ 360 in assay [1] (culture exposed to CB1954, end of the timecourse) and 3 in assay [1] (culture exposed to CB1954, start of the timecourse). The “level of bacteriophage above background” value in assay [1] (first ~60 minutes of exposure to CB1954) is listed as “no increase”. Besides, in assay [2], the survival of mice result is “Significantly increased survival and apparent cures”. For the same molecule, the “sensitisation of tumour cell lines to the prodrug” value in assay [3] is given as “can sensitise”.

On to `NC(=O)c1cc(N(CCCl)CCCl)c([N+](=O)[O-])cc1[N+](=O)[O-]` [SN 23862], for which the “activation by mammalian DT diaphorases” value in the assay with mammalian DT diaphorases is reported as “not activated”.
